Measurements published in patent US20210205413A1 (Nektar Therapeutics, priority 2018, published 2021).

Experiments:
Type in all cases: in vivo
[1] = tested on: Balb/C mice (OVA food allergy model); assay: Food allergy model (OVA sensitization and oral challenge)
Procedure: To develop the DTH model, Balb/c mice are sensitized with a subcutaneous administration of a model antigen keyhole limpet hemocyanin (KLH) emulsified in complete and incomplete Freund's adjuvant. […] Inflamed ears are subjected to immunohistochemistry (IHC) to quantify percent of FoxP3+ Treg cells post KLH challenge. The specificity of response is assessed after an additional 3-4 weeks with no treatment by either KLH rechallenge or conducting sensitization and challenge with an unrelated antigen ovalbumin (OVA). […] Post ten days of 2nd sensitization, mice are challenged with OVA eight times orally, every alternative day. […] Severity of allergic response is assessed by clinical scoring within 30-45 min of post 8th challenge. Further, serum mast cell protease 1 (MCPT 1) and OVA specific IgE titers are quantified. The percent Treg is determined by flow cytometry in peripheral blood and in spleen.

MRL/MpJ-Faslpr mice = assay: Mouse model of systemic lupus erythematosus (SLE)
Procedure: The MRL/MpJ-Faslpr mouse model develops an autoimmune disease that reflects pathologies of human SLE, including lymph node enlargement, increased IgG levels, antinuclear antibody production, proteinuria, and kidney failure caused by inflammation of the glomeruli. […] On dosing days, a suitable quantity of test article is withdrawn and diluted with vehicle to arrive at the desired dosing concentration (0.03 mg/kg dose and 0.3 mg/kg dose); dose volume was 5 mL/kg. Animals used for the study are MRL/MpJ-Faslpr mice and MRL/MpJ naive, female mice, aged from 6-8 weeks. Animals are assigned to treatment groups by randomization. Treatment groups are described in Table 13 below. 45 MRL/MpJ-Faslpr mice are randomized into 3 groups (15 each for Groups 2-4) based on body weight and level of protein content in urine before the commencement of the experiment. Animals in Groups 2-4 receive vehicle or test article delivered subcutaneously as described in Table 6. Group 1-MRL/MpJ mice receive the vehicle as a negative control. Three (3) days after the first dose administration on Week 8, 3 mice from Groups 2-4 are humanely sacrificed and blood samples were collected and processed. Body weights are measured twice a week from the commencement of the study and continued throughout. Skin lesion pictures were taken when first observed and then at one week intervals. Urine is obtained the day before dosing (at baseline) and then collected weekly thereafter. Protein levels in the urine are measured using a Siemens Clinitek Status Analyzer. On sacrifice day (3 days after the last dose at the end of Week 20), all mice are anesthetized by intraperitoneal injection of chloral hydrate (50 mg/kg). Blood samples are collected, and centrifuged at 10000 r/min for 10 min to obtain serum samples. The serum is stored at −80° C. until clinical biochemistry testing. Serum samples (100 μl) are analyzed for anti-dsDNA level by ELISA (Mouse Anti-dsDNA IgG-specific ELISA Kit, Alpha Diagnostic International, Cat. No. 5120) and the serum tested for BUN concentration using a Hitachi 7020 Automatic Biochemistry Analyzer. For lymphocyte analysis, blood samples are collected in EDTA-K tubes and tested for CD3/CD4/CD8/Treg/NK/B cell % by flow cytometry. […] This study further elucidates the effect of RUR-IL-2-induced Tregs on control of the physiological immune response and disease progression in a representative animal model of SLE.

Tregs = assay: Single-dose study in cynomologous monkey: Tregs in blood by flow cytometry
Procedure: A series of blood samples are taken from each animal before treatment (day −6 and −1) and at multiple intervals following treatment for assessment by flow cytometry of Treg cell numbers and activation state.
For immunophenotyping analysis, blood samples (approximately 1.0 mL) are collected from each monkey at the following time points: Pre-treatment (Day −6 and −1), Day 2, Day 3, Day 4, Day 5, Day 6, Day 7, Day 10, Day 14, and Day 21 post treatment. Venipuncture samples are collected into tubes containing the anticoagulant, K2EDTA. Tubes are placed on wet ice pending transfer. The whole blood samples are analyzed by flow cytometry using the following panels, and the samples are analyzed for the following: • T cell panel: CD45/CD3/CD4/CD8/ICOS • TB/NK panel: CD45/CD3/CD16/CD20 • pSTAT5 panel: CD3/CD4/CD8/CD25/CD127/pSTAT5 • Treg panel 1: CD3/CD4/CD8/CD25/FoxP3/Ki67 • Treg panel 2: CD3/CD4/CD8/CD25/FoxP3/Helios Computerized systems can be used for the conduct of the study, for example flow cytometry data acquisition can use BD FACSCanto II/FACSDiva LEGENDPlex Data Analysis Software, and flow cytometry data analysis can use De Novo FCS Express software.
Values from male and female are averaged, and the magnitude of change is shown relative to d-1 values, marked by the dotted line.

[2] = repeat administration over 12 weeks

## (1,3-bis(methoxypoly(ethylene glycol)10kDcarbamoyl)-2-propanoxy)-4-butanamide)interleukin-2) [RUR20kD-IL-2]
[1]; SC 0.1 mg/kg q3d×3
  Tregs (flow cytometry, peripheral blood and spleen): significant increase in Tregs
  levels of MCPT1 and anti-OVA specific IgE titers: significant decrease in levels of MCPT1 and anti-OVA specific IgE titers
[1]; SC 0.1 mg/kg q3d×3, repeated oral OVA
  anaphylaxis symptoms (clinical scores): efficacious in decreasing the high degree of anaphylaxis symptoms
MRL/MpJ-Faslpr mice; 0.3 mg/kg s.c. twice weekly, week 8 to week 20
  protein levels in urine (biomarker of kidney damage): nearly the same levels as observed in normal mice
MRL/MpJ-Faslpr mice; [2]
  Treg elevation: sustains Treg elevation
  blood urea nitrogen: reduces blood urea nitrogen
  urine protein levels and kidney histopathology: returns urine protein levels and kidney histopathology to normal
Tregs; single SC 25 μg/kg
  day FoxP3 MFI nearly returns to pre-dose levels: 14 to 21 days
  day by which CD25 MFI returns to near pre-dose levels: ≤ 21 days
  day of maximum CD25 MFI: 6 days
  days by which Treg numbers return to near d-1 levels: 14 to 21 days
  time of maximum FoxP3 MFI: 6 days
  time of maximum Treg cell numbers: seven days following administration
Tregs; single administration
  duration of sustained Treg mobilization and activity: over 14 days
